Measurements published in PubChem BioAssay AID1918955 (Molecular Pharmacology Branch, DTP, NCI, 2023).
Where “and” joins values, the source holds several entries; their conditions need not be identical. Equal values may be shown once.

Test system: NCI/ADR-RES complex spheroid viability
Assay: Anticancer human tumor NCI/ADR-RES cell line growth inhibition;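 for viability, T/C: 100% = DMSO vehicle treated spheroids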
Conditions: for viability, T/C: stronger effect = lower value
Method in brief: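 Complex spheroids of tumor cells with HUVEC and human MSCs, exposed to iadademstat combined with other agents. Each agent tested in half-log steps from near clinical Cmax (else 10 microM top), DMSO ≤0.25%.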

[1] = curve of first compound, second compound 0.1 µM
[2] = curve of first compound, second compound 0.316 µM
[3] = curve of first compound, second compound 1 µM
[4] = curve of first compound, second compound 3.16 µM
[5] = curve of first compound, second compound 10 µM
[6] = second compound 0.1 µM, first compound 0.0316 µM
[7] = second compound 0.1 µM, first compound 0.1 µM
[8] = second compound 0.1 µM, first compound 0.316 µM
[9] = second compound 0.1 µM, first compound 1 µM
[10] = second compound 0.316 µM, first compound 0.0316 µM
[11] = second compound 0.316 µM, first compound 0.1 µM
[12] = second compound 0.316 µM, first compound 0.316 µM
[13] = second compound 0.316 µM, first compound 1 µM
[14] = second compound 1 µM, first compound 0.0316 µM
[15] = second compound 1 µM, first compound 0.1 µM
[16] = second compound 1 µM, first compound 0.316 µM
[17] = second compound 1 µM, first compound 1 µM
[18] = second compound 3.16 µM, first compound 0.0316 µM
[19] = second compound 3.16 µM, first compound 0.1 µM
[20] = second compound 3.16 µM, first compound 0.316 µM
[21] = second compound 3.16 µM, first compound 1 µM
[22] = second compound 10 µM, first compound 0.0316 µM
[23] = second compound 10 µM, first compound 0.1 µM
[24] = second compound 10 µM, first compound 0.316 µM
[25] = second compound 10 µM, first compound 1 µM
[26] = second compound 0.1 µM, first compound 3.16 µM
[27] = second compound 0.1 µM, first compound 10 µM
[28] = second compound 0.316 µM, first compound 3.16 µM
[29] = second compound 0.316 µM, first compound 10 µM
[30] = second compound 1 µM, first compound 3.16 µM
[31] = second compound 1 µM, first compound 10 µM
[32] = second compound 3.16 µM, first compound 3.16 µM
[33] = second compound 3.16 µM, first compound 10 µM
[34] = second compound 10 µM, first compound 3.16 µM
[35] = second compound 10 µM, first compound 10 µM

Nc1ccccc1NC(=O)c1ccc(CNC(=O)OCc2cccnc2)cc1 + NC1CC1c1ccc(-c2cccc(O)c2)cc1
IC50 [1]: 0.824 µM
IC50 [2]: 0.907 µM
IC50 [3]: 0.906 µM
IC50 [4]: 0.976 µM
IC50 [5]: 0.882 µM
viability, T/C (second compound 0.1 µM, first compound 0.00949 µM): 93.7%
viability, T/C (second compound 0.1 µM, first compound 0.03 µM): 97.9%
viability, T/C (second compound 0.1 µM, first compound 0.0949 µM): 85.7%
viability, T/C (second compound 0.1 µM, first compound 0.3 µM): 69.1%
viability, T/C (second compound 0.1 µM, first compound 0.949 µM): 48.3%
viability, T/C (second compound 0.1 µM, first compound 3 µM): 27.2%
viability, T/C (second compound 0.316 µM, first compound 0.00949 µM): 99.2%
viability, T/C (second compound 0.316 µM, first compound 0.03 µM): 95.9%
viability, T/C (second compound 0.316 µM, first compound 0.0949 µM): 95%
viability, T/C (second compound 0.316 µM, first compound 0.3 µM): 72.8%
viability, T/C (second compound 0.316 µM, first compound 0.949 µM): 50.3%
viability, T/C (second compound 0.316 µM, first compound 3 µM): 25.8%
viability, T/C (second compound 1 µM, first compound 0.00949 µM): 93.3%
viability, T/C (second compound 1 µM, first compound 0.03 µM): 91.1%
viability, T/C (second compound 1 µM, first compound 0.0949 µM): 85.3%
viability, T/C (second compound 1 µM, first compound 0.3 µM): 71.5%
viability, T/C (second compound 1 µM, first compound 0.949 µM): 49.1%
viability, T/C (second compound 1 µM, first compound 3 µM): 26.7%
viability, T/C (second compound 3.16 µM, first compound 0.00949 µM): 93.5%
viability, T/C (second compound 3.16 µM, first compound 0.03 µM): 89.5%
viability, T/C (second compound 3.16 µM, first compound 0.0949 µM): 80.5%
viability, T/C (second compound 3.16 µM, first compound 0.3 µM): 71%
viability, T/C (second compound 3.16 µM, first compound 0.949 µM): 49.4%
viability, T/C (second compound 3.16 µM, first compound 3 µM): 30.8%
viability, T/C (second compound 10 µM, first compound 0.00949 µM): 83.4%
viability, T/C (second compound 10 µM, first compound 0.03 µM): 84.1%
viability, T/C (second compound 10 µM, first compound 0.0949 µM): 74.7%
viability, T/C (second compound 10 µM, first compound 0.3 µM): 60.9%
viability, T/C (second compound 10 µM, first compound 0.949 µM): 51.3%
viability, T/C (second compound 10 µM, first compound 3 µM): 31%

CC1COCCN1c1cc(-c2ccnn2C)c2ccnc(-c3ccn[nH]3)c2n1 (stereo not given) + NC1CC1c1ccc(-c2cccc(O)c2)cc1
IC50 [1]: 0.0118 µM
IC50 [2]: 0.0136 µM
IC50 [3]: 0.0123 µM
IC50 [4]: 0.0126 µM
IC50 [5]: 0.013 µM
viability, T/C (second compound 0.1 µM, first compound 0.00316 µM): 94.5%
viability, T/C (second compound 0.1 µM, first compound 0.01 µM): 56.5%
viability, T/C [6]: 11.9%
viability, T/C [7]: 2.87%
viability, T/C [8]: 1.82%
viability, T/C [9]: 1.99%
viability, T/C (second compound 0.316 µM, first compound 0.00316 µM): 93.9%
viability, T/C (second compound 0.316 µM, first compound 0.01 µM): 63.8%
viability, T/C [10]: 11.9%
viability, T/C [11]: 2.5%
viability, T/C [12]: 2.17%
viability, T/C [13]: 2.31%
viability, T/C (second compound 1 µM, first compound 0.00316 µM): 95.2%
viability, T/C (second compound 1 µM, first compound 0.01 µM): 57.5%
viability, T/C [14]: 16.2%
viability, T/C [15]: 2.46%
viability, T/C [16]: 1.61%
viability, T/C [17]: 1.71%
viability, T/C (second compound 3.16 µM, first compound 0.00316 µM): 92.3%
viability, T/C (second compound 3.16 µM, first compound 0.01 µM): 58.4%
viability, T/C [18]: 16.9%
viability, T/C [19]: 2.63%
viability, T/C [20]: 1.85%
viability, T/C [21]: 2.16%
viability, T/C (second compound 10 µM, first compound 0.00316 µM): 75.9%
viability, T/C (second compound 10 µM, first compound 0.01 µM): 58.6%
viability, T/C [22]: 20.3%
viability, T/C [23]: 4.64%
viability, T/C [24]: 2.38%
viability, T/C [25]: 2.48%

CCN(c1cc(-c2ccc(CN3CCOCC3)cc2)cc(C(=O)NCc2c(C)cc(C)[nH]c2=O)c1C)C1CCOCC1
viability, T/C (compound 0.00949 µM): 99.6% and 106%
viability, T/C (compound 0.03 µM): 98.7% and 102%
viability, T/C (compound 0.0949 µM): 98.2% and 104%
viability, T/C (compound 0.3 µM): 99% and 97.8%
viability, T/C (compound 0.949 µM): 91.6% and 97.3%
viability, T/C (compound 3 µM): 86.3% and 88%
IC50 (curve of compound): > 3 µM

CC1COCCN1c1cc(C2(S(C)(=N)=O)CC2)nc(-c2ccnc3[nH]ccc23)n1 (stereo not given) + NC1CCC(NC2CC2c2ccccc2)CC1
IC50 [1]: > 10 µM
IC50 [2]: > 10 µM
IC50 [3]: 8.56 µM
IC50 [4]: 7.93 µM
IC50 [5]: 5.24 µM
viability, T/C [6]: 98.9%
viability, T/C [7]: 104%
viability, T/C [8]: 105%
viability, T/C [9]: 95.6%
viability, T/C [26]: 82.8%
viability, T/C [27]: 50.5%
viability, T/C [10]: 101%
viability, T/C [11]: 98.8%
viability, T/C [12]: 102%
viability, T/C [13]: 94.5%
viability, T/C [28]: 71.8%
viability, T/C [29]: 55.5%
viability, T/C [14]: 104%
viability, T/C [15]: 102%
viability, T/C [16]: 97.6%
viability, T/C [17]: 97.5%
viability, T/C [30]: 84.5%
viability, T/C [31]: 44.2%
viability, T/C [18]: 96.4%
viability, T/C [19]: 96.8%
viability, T/C [20]: 94.6%
viability, T/C [21]: 84.4%
viability, T/C [32]: 68.6%
viability, T/C [33]: 45%
viability, T/C [22]: 98.4%
viability, T/C [23]: 92.7%
viability, T/C [24]: 89.7%
viability, T/C [25]: 83.8%
viability, T/C [34]: 61.3%
viability, T/C [35]: 34.6%

CC1(C)CCC(CN2CCN(c3ccc(C(=O)NS(=O)(=O)c4ccc(NCC5CCOCC5)c([N+](=O)[O-])c4)c(Oc4cnc5[nH]ccc5c4)c3)CC2)=C(c2ccc(Cl)cc2)C1 + NC1CC1c1ccc(-c2cccc(O)c2)cc1
IC50 [1]: > 10 µM
IC50 [2]: > 10 µM
IC50 [3]: > 10 µM
IC50 [4]: > 10 µM
IC50 [5]: > 10 µM
viability, T/C [6]: 107%
viability, T/C [7]: 109%
viability, T/C [8]: 109%
viability, T/C [9]: 104%
viability, T/C [26]: 101%
viability, T/C [27]: 95.6%
viability, T/C [10]: 110%
viability, T/C [11]: 111%
viability, T/C [12]: 113%
viability, T/C [13]: 101%
viability, T/C [28]: 103%
viability, T/C [29]: 89.7%
viability, T/C [14]: 103%
viability, T/C [15]: 106%
viability, T/C [16]: 103%
viability, T/C [17]: 99.8%
viability, T/C [30]: 101%
viability, T/C [31]: 99.4%
viability, T/C [18]: 97.1%
viability, T/C [19]: 97.8%
viability, T/C [20]: 102%
viability, T/C [21]: 108%
viability, T/C [32]: 98.6%
viability, T/C [33]: 89.8%
viability, T/C [22]: 88.6%
viability, T/C [23]: 98.4%
viability, T/C [24]: 92.3%
viability, T/C [25]: 94.5%
viability, T/C [34]: 81.6%
viability, T/C [35]: 75.7%

Nc1ccccc1NC(=O)c1ccc(CNC(=O)OCc2cccnc2)cc1
viability, T/C (compound 0.00949 µM): 105% and 99.8%
viability, T/C (compound 0.03 µM): 98.3% and 100%
viability, T/C (compound 0.0949 µM): 88.4% and 94.4%
viability, T/C (compound 0.3 µM): 81.6% and 75.8%
viability, T/C (compound 0.949 µM): 58.7% and 49.3%
viability, T/C (compound 3 µM): 33.9% and 26.6%
IC50 (curve of compound): 1.47 µM and 0.9 µM

NC1CCC(NC2CC2c2ccccc2)CC1 (stereo not given)
viability, T/C (compound 0.1 µM): 104% [middle of 25 runs]
viability, T/C (compound 0.316 µM): 110% and 108% (2×)
viability, T/C (compound 1 µM): 102% [middle of 24 runs]
viability, T/C (compound 3.16 µM): 99.8% [middle of 25 runs]
viability, T/C (compound 10 µM): 91.5% [middle of 23 runs]
IC50 (compound alone, run of 11/29/2021): > 10 µM
